One test has as its system NCI-H3122 cells. As to the kind of experiment: Tumor cell growth inhibition test (CCK8 detection), NCI-H3122. It counts as cell-based, human. The protocol:
(§1) Growth Inhibition Test of the Series of Compounds on Various Tumor Cells (CCK8 Detection)
(4) NCI-H3122 human lung cancer cell line, RPMI 1640+10% FBS+1% Sodium Pyruvate;
(§2) (1) Cell culture • a) Cells in logarithmic growth phase were collected, counted, and re-suspended in a complete medium. • b) The cell concentration was adjusted to an appropriate concentration, and inoculated into a 96-well plate in an amount of 100 μl of cell suspension per well. • c) The cells were incubated for 24 hrs in an incubator at 37° C. with 100% relative humidity and 5% CO2.
(§3) (2) Test of relative inhibition rate • 1) Cells in logarithmic growth phase were collected, counted, and re-suspended in a complete medium. The cell concentration was adjusted to an appropriate concentration (determined according to the optimal test result of cell density), and inoculated into a 96-well plate in an amount of 100 μl of cell suspension per well. The cells were incubated for 24 hrs in an incubator at 37° C. with 100% relative humidity and 5% CO2. • 2) The compound to be tested was diluted with the medium to the corresponding action concentration, and […] were added in an amount of 25 µl/well.
(§4) The IC50 curve was fitted using the software Graphpad Prism 5 and using the calculation formula log(inhibitor) vs response and the IC50 value was calculated.

The test system of test [1] is NCI-H2228 nude mice xenografts. As to the kind of experiment: In-vivo pharmacodynamic evaluation, NCI-H2228 subcutaneous xenograft. The following applies: 14 days, day 21. The protocol:
In-Vivo Pharmacodynamic Evaluation
SCID Beige mice, female, 5-6 weeks old, weighed 18+2 g, purchased from Beijing HFK Bioscience Co., Ltd., bred in an SPF level environment.
NCI-H2228 cells were cultured in PRMI-1640 containing 10% fetal bovine serum (FBS) and 1% sodium pyruvate. The cells were cultured in an incubator at 37° C. with 5% CO2.
Establishment of subcutaneous tumor transplantation model in nude mice by cell inoculation: Tumor cells in logarithmic growth phase were collected, counted and re-suspended in PRMI-1640 basal medium. Matrigel was added at a ratio of 1:1, and the concentration of the cell suspension was adjusted to 6×10^7/ml. Tumor cells were subcutaneously inoculated to the right back of nude mice in an amount of 6×10^6/0.1 mL/mouse using a 1 mL syringe (with a […]).
When the tumor volume reached about 200 mm^3, the animals were randomly grouped according to randomized block method, so that the difference in tumor volume of each group was within 10% of the mean. There were 5 groups in total, each having 8 animals. The day of grouping was recorded as Day 0, and the animals were administered immediately after grouping. Compound I-3 of the present invention and Ceritinib were orally administered once a day for consecutive 14 days, and then observed for 7 days. The weight and tumor size of the animals were measured twice a week during the experiment. The clinical symptoms were observed and recorded daily. After the animals were weighed for the last time on Day 21, they were sacrificed by euthanization with CO2. The tumors were taken, weighed and photographed, and the average tumor size was calculated, to investigate the growth inhibitory effect of the test substance Compound I-3 on human lung cancer NCI-H2228 nude mice xenografts under the experimental conditions.
When the tumor in the tumor-bearing mice grew to a measurable size, the mice were randomly divided into 5 groups according to the principle of equal mean tumor volume using SPSS 17.0 software. Compound I-3 was administered by intragastric administration at a dosage of 30, 10, and 3 mg/kg per day. The positive control ceritinib was administered by intragastric administration at a dose of 10 mg/kg per day in a volume of 0.1 ml/10 g. These agents were administered once a day for consecutive 14 days. The animals in the negative control group were given an equal amount of solvent (1% DMSO in physiological saline). During the administration and recovery periods, the body weight and tumor size of the mice were measured 2-3 times per week. The tumor volume and relative tumor volume were calculated based on the measured data. The tumor volume (TV) was calculated by a formula below: TV=1/2×a×b^2, where a and b represent the major and minor diameters of the tumor, respectively. According to the measurement results, the relative tumor volume (RTV) was calculated, by a formula below: RTV=Vt/V0, where V0 is the tumor volume at the start of the experiment, and Vt is the tumor volume measured each time.

The next test concerns NCI-H2228 cells. As to the kind of experiment: Tumor cell growth inhibition test (CCK8 detection), NCI-H2228. It counts as cell-based, human. The method, then: as §1
(3) NCI-H2228 human non-small cell lung cancer cell line, RPMI 1640+10% FBS+1% Sodium Pyruvate;
as §2, §3, §4

Another test has as its system Ba/F3 cells. Description: Tumor cell growth inhibition test (CCK8 detection), Ba/F3. It counts as cell-based, mouse. The protocol:
as §1
(1) Ba/F3 mouse IL-3 dependent pro-B lymphocyte cell line, RPMI 1640+10% FBS+10 ng/ml Interleukin-3+1% Sodium Pyruvate;
as §2, §3, §4

In another test the test system is Karpas 299 cells. Description: Tumor cell growth inhibition test (CCK8 detection), Karpas 299. The format is cell-based, human. The protocol: as §1
(2) Karpas 299 human T lymphoma cell line, RPMI 1640+10% FBS+1% Sodium Pyruvate;
as §2, §3, §4

The target of the next test is ALK enzyme (Homo sapiens, UniProt Q9UM73). Description: In-vitro ALK kinase inhibitory activity (HTRF kinEASE TK kit). The format is biochemical. The following applies: inhibitory activity for ALK enzyme. The protocol:
Anaplastic Lymphoma Kinase (ALK) Inhibitory Activity The in-vitro kinase assay was performed using the HTRF kinEASE TK kit available from Cisbio. The operation steps are indicated in the instructions of the kit. This method was used to detect the inhibitory effect of the compound to be tested on the activity of ALK enzymes in vitro, including wild-type ALK (Cat.PV3867, Invitrogen), ALK L1196M (Cat. PV6168, Life technologies), and ALK F1174L (Cat. PV6160, Life technologies). The specific operation steps were as follows. […] In addition to the control wells, 4 μL of the diluted compound solution to be tested was added to the reaction wells, and 4 μL of the 2.5% DMSO solution corresponding to the ALK enzyme previously formulated was added to the control wells. (2) 2 μL of a TK-biotin substrate solution previously formulated in a substrate concentration corresponding to the ALK enzyme was added to all reaction wells. (3) 2 μL of a previously prepared enzyme solution of corresponding concentration was added to all the reaction wells except the negative wells, and 2 μL of the 1× kinase buffer corresponding to the enzyme was added to the negative wells to make up the volume. The plate was sealed with a membrane, and incubated for 10 min at room temperature after mixing uniformly, such that the compounds were bond to the enzyme fully. (4) 2 μL of an ATP solution in a concentration corresponding to the ALK enzyme was added to all the reaction wells to initiate the kinase reaction, where the enzyme reaction time by ALK was 60 minutes. (5) An ALK test solution was prepared 5 minutes before the end of the kinase reaction. Streptavidin-XL665 and TK antibody europium cryptate (1:100) solutions for assay having a concentration corresponding to the enzyme were prepared using the detection buffer in the kit. (6) After the completion of the kinase reaction, 5 μl of diluted Streptavidin-XL665 was added to all the reaction wells respectively, and mixed uniformly, and then the diluted TK antibody europium cryptate solution for assay was added immediately. (7) The plate was sealed, mixed uniformly and allowed to react at room temperature for 1 h. The fluorescence signal (excitation at 320 nm, and emission at 665 nm and 615 nm) was detected using the ENVISION instrument (Perkinelmer). The inhibition rate for each well was calculated from the values of the fully active wells and the background signal wells. The values of replicated wells were averaged, and the half-maximal inhibitory activity (IC50) of each compound to be tested was fitted with a professional drawing analysis software PRISM 5.0.
(In general: Time-resolved FRET reads energy transfer from a long-lived donor to a nearby acceptor.)

[2] abbreviates: Homo sapiens, NCI-H3122, 72 hrs.
[3] abbreviates: Homo sapiens, NCI-H2228, 72 hrs.
Setting [4] is: Homo sapiens, KARPAS-299, 72 hrs.

For orientation: IC50 means the concentration at which inhibition is half-maximal.

Like-named read-outs stand apart in the source and are kept apart here.

Chain of ALK enzyme (Q9UM73 19-1620 limits assumed): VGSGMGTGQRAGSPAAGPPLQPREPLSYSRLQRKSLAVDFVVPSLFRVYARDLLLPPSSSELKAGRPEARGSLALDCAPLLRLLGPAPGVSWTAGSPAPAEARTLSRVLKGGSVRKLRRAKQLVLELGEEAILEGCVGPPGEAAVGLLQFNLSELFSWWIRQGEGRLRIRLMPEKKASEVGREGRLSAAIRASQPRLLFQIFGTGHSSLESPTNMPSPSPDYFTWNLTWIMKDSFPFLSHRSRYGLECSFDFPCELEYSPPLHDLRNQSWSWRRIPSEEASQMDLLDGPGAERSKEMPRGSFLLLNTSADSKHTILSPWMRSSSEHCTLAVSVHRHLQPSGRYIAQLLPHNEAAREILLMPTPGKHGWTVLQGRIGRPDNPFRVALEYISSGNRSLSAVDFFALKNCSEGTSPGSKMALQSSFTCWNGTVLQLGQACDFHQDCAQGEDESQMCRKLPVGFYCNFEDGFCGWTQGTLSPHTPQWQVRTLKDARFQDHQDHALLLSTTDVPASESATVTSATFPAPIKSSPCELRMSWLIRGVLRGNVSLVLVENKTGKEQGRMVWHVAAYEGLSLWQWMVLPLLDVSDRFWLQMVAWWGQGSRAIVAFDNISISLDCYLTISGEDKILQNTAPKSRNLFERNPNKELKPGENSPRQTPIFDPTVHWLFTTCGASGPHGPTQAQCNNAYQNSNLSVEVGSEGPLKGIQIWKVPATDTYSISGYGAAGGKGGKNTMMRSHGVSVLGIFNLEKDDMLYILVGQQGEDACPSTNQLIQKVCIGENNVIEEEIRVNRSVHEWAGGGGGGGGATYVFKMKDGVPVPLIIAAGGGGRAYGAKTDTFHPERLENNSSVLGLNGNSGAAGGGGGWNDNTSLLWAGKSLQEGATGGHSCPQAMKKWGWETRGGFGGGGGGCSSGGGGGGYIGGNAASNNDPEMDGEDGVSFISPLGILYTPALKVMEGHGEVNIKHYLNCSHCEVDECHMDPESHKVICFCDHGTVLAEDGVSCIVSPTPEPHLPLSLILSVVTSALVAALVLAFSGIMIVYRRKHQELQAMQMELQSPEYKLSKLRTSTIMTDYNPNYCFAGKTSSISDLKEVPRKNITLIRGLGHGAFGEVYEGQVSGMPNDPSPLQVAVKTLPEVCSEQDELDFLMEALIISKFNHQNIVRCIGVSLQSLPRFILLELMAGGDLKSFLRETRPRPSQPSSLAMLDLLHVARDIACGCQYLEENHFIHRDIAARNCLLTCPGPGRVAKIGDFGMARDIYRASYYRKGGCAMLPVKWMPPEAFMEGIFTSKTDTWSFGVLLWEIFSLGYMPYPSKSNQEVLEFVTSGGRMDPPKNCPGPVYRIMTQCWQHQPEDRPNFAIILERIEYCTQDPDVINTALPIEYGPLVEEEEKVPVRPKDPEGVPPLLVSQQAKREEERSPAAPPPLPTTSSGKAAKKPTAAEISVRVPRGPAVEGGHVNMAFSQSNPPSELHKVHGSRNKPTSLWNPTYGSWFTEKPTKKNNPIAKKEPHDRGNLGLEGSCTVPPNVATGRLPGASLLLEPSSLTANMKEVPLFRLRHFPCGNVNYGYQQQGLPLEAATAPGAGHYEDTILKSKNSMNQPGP

`Cc1cc(Nc2ncc(Cl)c(Nc3ccccc3S(=O)(=O)C(C)C)n2)c(OC(C)C)cc1C1CCNCC1` [Ceritinib, reference compound]: the concentration for half-maximal inhibition (IC50) in the test on NCI-H3122 cells (setting [2]) worked out at 27.2 nM; in the test on NCI-H2228 cells (setting [3]), 97.1 nM; in the test on Ba/F3 cells (Mus musculus, BaF3, 72 hrs) it was 2390 nM; in the test with Karpas 299 cells (setting [4]) it was 35.6 nM. The “IR (%)” value in test [1] (10 mg/kg qd intragastric) turned out to be 26.07%. The “RTV d21” value in test [1] (10 mg/kg qd intragastric) came to 2.68 ± 0.28. In addition, the “T/C (%)” value in test [1] (10 mg/kg qd intragastric) came out at 71.47%.
Take `[2H]C([2H])([2H])Oc1cc(C2CCNCC2)c(C)cc1Nc1ncc(Cl)c(Nc2ccccc2S(=O)(=O)C(C)C)n1` [Compound I-3, 5-chloro-N4-(2-(isopropylsulfonyl)phenyl)-N2-(2-D3-methoxy-5-methyl-4-(piperidin-4-yl)phenyl)pyrimidin-2,4-diamine]: in test [1] (3 mg/kg qd intragastric), the “IR (%)” value is listed as 12.86%, the “RTV d21” value was 3.12 ± 0.23 and the “T/C (%)” value is reported as 77.45%. Also, in test [1] (10 mg/kg qd intragastric), the “IR (%)” value was determined as 53.39%, the “RTV d21” value was determined as 1.70 ± 0.20 and the “T/C (%)” value is on record as 45.33%. Further, in test [1] (30 mg/kg qd intragastric), the “IR (%)” value was determined as 77.14%, the “RTV d21” value came out at 0.79 ± 0.17 and the “T/C (%)” value worked out at 21.07%.
As to `COc1cc(C2CCNCC2)c(C)cc1Nc1ncc(Cl)c(Nc2ccccc2S(=O)(=O)C(C)C)n1` [Compound I-3, 5-chloro-N4-(2-(isopropylsulfonyl)phenyl)-N2-(2-D3-methoxy-5-methyl-4-(piperidin-4-yl)phenyl)pyrimidin-2,4-diamine], the IC50 in the test on NCI-H3122 cells (72 hrs) was 4.03 nM; in the test on NCI-H2228 cells (72 hrs) it was 41.3 nM; in the test on Ba/F3 cells (72 hrs), 1240 nM; at ALK enzyme (listed as 3, read-out: IC50 range) it was 1 to 10 nM; in the test on Karpas 299 cells (72 hrs) it was 7.64 nM.
As for “5-chloro-N2-(2-D6-ethoxy-5-methyl-4-(piperidin-4-yl)phenyl)-N4-(2-(isopr opylsulfonyl)phenyl))pyrimidin-2,4-diamine [Compound I-14]”, the half-inhibitory concentration (IC50) with NCI-H3122 cells (72 hrs) was 6.09 nM; in the test on NCI-H2228 cells (72 hrs), 45.5 nM; in the test with Ba/F3 cells (72 hrs), 1990 nM; at ALK enzyme (read-out: IC50 range) it was 1 to 10 nM; in the test on Karpas 299 cells (72 hrs), 5.23 nM.
`[2H]C([2H])([2H])C([2H])(Oc1cc(C2CCNCC2)c(C)cc1Nc1ncc(Cl)c(Nc2ccccc2S(=O)(=O)C(C)C)n1)C([2H])([2H])[2H]`: the IC50 with NCI-H3122 cells (setting [2]) is 28.4 nM; in the test on NCI-H2228 cells (setting [3]), 111 nM; with Ba/F3 cells (Mus musculus, BaF3, 72 hrs), 2890 nM; in the test on Karpas 299 cells (setting [4]), 45.7 nM.
As for `COc1cc(C2CCNCC2)c(C)cc1Nc1nccc(Nc2ccccc2S(=O)(=O)C(C)C)n1` [Compound I-1, N4-(2-(isopropylsulfonyl)phenyl)-N2-(2-D3-methoxy-5-methyl-4-(piperidin-4-yl)phenyl)pyrimidin-2,4-diamine], the IC50 at ALK enzyme (read-out: IC50 range) fell in the range of 1 to 10 nM.

The record behind these values is patent US10647694B2, “Diphenylaminopyrimidine and triazine compound, and pharmaceutical composition and use thereof” (ARROMAX PHARMATECH CO., LTD., priority 2016, dated 2020).
